Measured values reported in article PMC6831628, “Steady-state activation of the high-affinity isoform of the α4β2δ GABAA receptor” (Scientific Reports, 2019).
“And” between values parts separate entries of the source, which are not always exact repeats. Equal values may be shown once. Read-outs that look alike come from different tables or passages of the source.

What was measured:
[1] = molecular target: T1, human α4β2δ GABAA receptors (Homo sapiens, UniProt P47870+P48169); assay: two-electrode voltage clamp of α4β2δ GABAA receptors expressed in Xenopus laevis oocytes (RAD model analysis); assay type: cell-based; details: for EC50: Hill equation; for EC50 / Hill coefficient: mean ± S.D.; for Q (=A/D), equilibrium between active and desensitized states: steady-state currents fitted to Eq. (2), K and c constrained to peak values; for maximal peak open probability (POpen,peak): theoretical/predicted maximum from L, c and N; for calculated steady-state POpen: Eq. (4); for contribution towards stabilization of the open state: N×RT×ln(c), GABA 2 sites, propofol 4 sites
T1 construct: expressed in transfected cells; host or cells: Xenopus laevis oocytes injected with cRNA, 5:1:5 (α4:β2:δ)
Protocol: The human α4β2δ GABAA receptors were expressed in Xenopus laevis oocytes. Harvesting of oocytes was conducted under the Guide for the Care and Use of Laboratory Animals as adopted and promulgated by the National Institutes of Health. The animal protocol was approved by the Animal Studies Committee of Washington University in St. Louis (Approval No. 20170071).
The cDNAs of individual subunits in the pcDNA3 vector were linearized with Xba I (NEB Labs, Ipswich, MA). The cRNAs were generated using mMessage mMachine (Ambion, Austin, TX). The oocytes were injected with a total of 11 ng cRNA per oocyte in a 5:1:5 (α4:β2:δ) ratio. Following injection, the oocytes were incubated in bath solution (96 mM NaCl, 2 mM KCl, 1.8 mM CaCl2, 1 mM MgCl2, and 5 mM HEPES; pH 7.4) plus supplements (2.5 mM Na pyruvate, 100 U/ml penicillin, 100 μg/ml streptomycin, and 50 μg/ml gentamycin) at 15 °C for 3–4 days prior to conducting electrophysiological recordings.
The recordings were conducted at room temperature using standard two-electrode voltage clamp. The pipets were filled with 3 M KCl. The oocytes were clamped at −60 mV. The chamber (RC-1Z, Warner Instruments, Hamden, CT) was perfused with bath solution (see above) at 5–8 ml/min. Solutions were gravity-applied from 30-ml glass syringes with glass luer slips via Teflon tubing, and switched manually.
The current responses were amplified with an Axoclamp 900A (Molecular Devices, Sunnyvale, CA) or OC-725C amplifier (Warner Instruments, Hamden, CT), digitized with a Digidata 1320 or 1200 series digitizer (Molecular Devices), and stored using pClamp (Molecular Devices).
In such cases, the number of cell provided is given as a range of cell numbers for each concentration point. […] The level of constitutive activity was determined by exposing the cells to 100–300 μM picrotoxin.
The current traces were analyzed using Clampfit (Molecular Devices) to determine the amplitudes of peak and steady-state responses. If steady-state (defined as ΔI < 2% during the last 20 s of agonist application) was not reached by the end of the agonist application, an estimate was made by exponential fitting of the current decay. Fitting was done using pClamp, to a single exponential or sums of up to three exponentials. The constant offset is reported as the steady-state response.

[2] = tested on: receptors resulting from the expression of α4, β (β2 or β3), and δ subunits; details: cited from earlier work
α1β2γ2L GABAA receptor = details: cited from earlier work
α4β3δ receptors = details: oocytes, cited from earlier work
[3] = molecular target: T2, α4β2δ receptor with β2(Y205S) mutation (Homo sapiens, UniProt P47870+P48169, Y229S); assay: activation of α4β2δ receptor carrying the β2(Y205S) mutation; assay type: cell-based; details: data not shown
T2 construct: expressed in transfected cells; host or cells: Xenopus laevis oocytes (inferred from the Methods on α4β2δ)

[4] = molecular target: α1β2γ2L receptor with β2(Y205S) mutation (Homo sapiens, UniProt P14867+P47870, Y229S); assay: activation of α1β2γ2L receptor carrying the β2(Y205S) mutation; assay type: cell-based; details: data not shown
[5] = peak currents fitted to Eq. (1)

T1 sequence (P48169 36-554): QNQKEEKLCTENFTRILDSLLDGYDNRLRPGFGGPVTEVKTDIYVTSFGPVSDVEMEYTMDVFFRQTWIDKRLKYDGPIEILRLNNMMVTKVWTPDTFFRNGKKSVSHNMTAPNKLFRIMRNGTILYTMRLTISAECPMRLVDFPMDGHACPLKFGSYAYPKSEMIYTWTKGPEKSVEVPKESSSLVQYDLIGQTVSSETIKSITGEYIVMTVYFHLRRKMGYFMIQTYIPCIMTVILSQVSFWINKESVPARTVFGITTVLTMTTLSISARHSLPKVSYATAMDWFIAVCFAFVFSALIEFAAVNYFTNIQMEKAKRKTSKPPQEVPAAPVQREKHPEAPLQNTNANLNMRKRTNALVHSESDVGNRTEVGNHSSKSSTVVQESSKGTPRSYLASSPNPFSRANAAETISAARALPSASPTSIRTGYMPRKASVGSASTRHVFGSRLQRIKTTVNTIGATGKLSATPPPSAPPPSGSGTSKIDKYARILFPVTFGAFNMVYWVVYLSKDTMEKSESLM
T1 sequence (P47870 25-512 limits assumed): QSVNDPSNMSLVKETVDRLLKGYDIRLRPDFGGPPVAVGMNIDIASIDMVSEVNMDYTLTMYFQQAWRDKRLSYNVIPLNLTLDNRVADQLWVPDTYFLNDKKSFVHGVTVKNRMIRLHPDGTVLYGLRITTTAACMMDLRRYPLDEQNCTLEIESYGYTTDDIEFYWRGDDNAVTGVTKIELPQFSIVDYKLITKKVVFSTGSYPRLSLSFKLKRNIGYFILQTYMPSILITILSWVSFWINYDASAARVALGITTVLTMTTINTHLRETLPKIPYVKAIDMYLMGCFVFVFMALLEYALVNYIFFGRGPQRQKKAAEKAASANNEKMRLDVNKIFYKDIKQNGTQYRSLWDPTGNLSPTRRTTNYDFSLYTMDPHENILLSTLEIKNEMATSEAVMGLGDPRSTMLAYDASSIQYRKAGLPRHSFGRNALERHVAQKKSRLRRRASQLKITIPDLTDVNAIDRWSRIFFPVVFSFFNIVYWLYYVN
T1 sequence (O14764 25-452 partner): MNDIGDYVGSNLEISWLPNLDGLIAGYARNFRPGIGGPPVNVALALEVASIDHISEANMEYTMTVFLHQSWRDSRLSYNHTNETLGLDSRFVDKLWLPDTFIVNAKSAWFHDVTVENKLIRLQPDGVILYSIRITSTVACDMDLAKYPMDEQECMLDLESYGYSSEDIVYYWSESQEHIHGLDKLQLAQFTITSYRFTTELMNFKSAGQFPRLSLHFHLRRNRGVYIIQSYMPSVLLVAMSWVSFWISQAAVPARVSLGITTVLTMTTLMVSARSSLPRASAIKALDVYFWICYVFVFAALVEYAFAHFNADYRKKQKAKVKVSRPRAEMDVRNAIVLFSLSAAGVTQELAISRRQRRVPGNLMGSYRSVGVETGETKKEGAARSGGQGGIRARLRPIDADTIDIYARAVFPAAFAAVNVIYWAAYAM
T2 sequence (P48169 36-554): as the sequence (P48169 36-554) above
T2 sequence (P47870 25-512 Y229S limits assumed): as the sequence (P47870 25-512 limits assumed) above, with Y205S counted along it
T2 sequence (O14764 25-452 partner): as the sequence (O14764 25-452 partner) above
Sequence of α1β2γ2L receptor with β2(Y205S) mutation (P14867 28-456): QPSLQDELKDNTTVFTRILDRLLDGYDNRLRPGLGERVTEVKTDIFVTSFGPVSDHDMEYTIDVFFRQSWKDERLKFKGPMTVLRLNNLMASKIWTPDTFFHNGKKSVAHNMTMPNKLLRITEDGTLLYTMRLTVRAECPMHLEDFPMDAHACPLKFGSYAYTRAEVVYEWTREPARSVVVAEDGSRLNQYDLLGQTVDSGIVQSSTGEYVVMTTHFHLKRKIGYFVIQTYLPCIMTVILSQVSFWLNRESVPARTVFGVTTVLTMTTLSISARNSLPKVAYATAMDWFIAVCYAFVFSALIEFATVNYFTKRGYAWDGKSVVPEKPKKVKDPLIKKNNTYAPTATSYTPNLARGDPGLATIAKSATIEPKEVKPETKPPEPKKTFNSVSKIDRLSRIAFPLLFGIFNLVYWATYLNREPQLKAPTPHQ
Sequence of α1β2γ2L receptor with β2(Y205S) mutation (P47870 25-512 Y229S limits assumed): as the sequence (P47870 25-512 limits assumed) above, with Y205S counted along it
Sequence of α1β2γ2L receptor with β2(Y205S) mutation (P18507 40-475 partner): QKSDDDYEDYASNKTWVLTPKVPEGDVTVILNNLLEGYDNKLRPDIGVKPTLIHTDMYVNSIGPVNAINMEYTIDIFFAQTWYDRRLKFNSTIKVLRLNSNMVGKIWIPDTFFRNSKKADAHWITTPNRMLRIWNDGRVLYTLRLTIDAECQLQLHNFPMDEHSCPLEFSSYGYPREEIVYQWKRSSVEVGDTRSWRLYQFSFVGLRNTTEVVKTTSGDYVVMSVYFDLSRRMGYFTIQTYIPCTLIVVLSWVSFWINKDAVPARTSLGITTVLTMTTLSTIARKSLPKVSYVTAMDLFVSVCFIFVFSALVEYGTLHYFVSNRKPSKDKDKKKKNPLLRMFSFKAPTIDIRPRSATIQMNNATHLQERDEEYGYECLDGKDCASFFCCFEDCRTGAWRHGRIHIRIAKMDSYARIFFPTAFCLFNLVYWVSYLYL

Compound: CC(=O)[C@H]1CC[C@H]2[C@@H]3CC[C@H]4C[C@H](O)CC[C@]4(C)[C@H]3CC[C@]12C [3α5αP, allopregnanolone]
- Kd [1]: 0.21 ± 0.04 µM
- EC50 ([1]; EC50, peak currents): 0.23 ± 0.1 µM
- cX, ratio of equilibrium dissociation constant of the open receptor to KX [1, 5]: 0.68 ± 0.01
- Hill coefficient ([1]; peak currents): 1.17 ± 0.30
- Q (=A/D), equilibrium between active and desensitized states [1]: 0.89 ± 0.33 and 0.89
- maximal peak open probability (POpen,peak) [1]: ~ 0.2
- maximal peak open probability (POpen,peak) ([1]; listed as allopregnanolone): 0.2

Compound: O=C(Nc1c(-c2cccs2)nc2ccccn12)c1ccc(Cl)cc1 [DS-2]
- effect of DS-2 ([2]; high-affinity isoform): directly activated
- effect of DS2 ([2]; low-affinity isoform): potentiated but not directly activated
- direct activation ([1]; isoform investigated in the present study): directly activated

Compound: NCCCC(=O)O [GABA]
- calculated steady-state POpen ([1]; 30 nM GABA): 0.24
- open probability (peak) ([1]; 0.3 μM GABA, relative to PTX (0) and 10 μM GABA + 50 μM propofol (1)): 0.35 ± 0.09
- contribution towards stabilization of the open state [1]: 0.94 kcal/mol
- Hill coefficient ([1]; peak currents): 0.80 ± 0.09
- steady-state open probability (POpen,S.S.) ([1]; saturating GABA): ~0.3
- Q (=A/D), equilibrium between active and desensitized states [1]: 0.78 ± 0.08 and 0.78
- maximal peak open probability (POpen,peak) [1]: 0.44 and 0.42 and 0.4 and ~ 0.4
- stabilization energy from binding of two GABA molecules (α1β2γ2L GABAA receptor): 6.4 to 7.5 kcal/mol

Compound: O=c1[nH]oc2c1CCNC2 [THIP]
- EC50 (α4β3δ receptors; read-out: high-affinity component of concentration-response curve): < 0.1 µM
- EC50 (α4β3δ receptors; read-out: low-affinity component of concentration-response curve): > 10 µM

Compound: CC(C)c1cccc(C(C)C)c1O [propofol]
- predicted POpen,S.S. after addition of propofol ([1]; 1 μM propofol added to 30 nM GABA, 10 μM taurine, 30 nM 3α5αP, 0.1 μM PS): 0.28
- peak response to 0.3 μM GABA with coapplied propofol ([1]; 1 μM propofol, peak response): 151 ± 12 % of control
- steady-state response to 0.3 μM GABA with propofol ([1]; 1 μM propofol, steady-state response): 145 ± 14 % of control
- EC50 ([1]; EC50, peak currents): 7.3 ± 2 µM
- Kd ([1]; KX, equilibrium dissociation constant of the resting receptor, peak currents fitted to Eq. (1), best-fit ± S.E. of the fit): 55.1 µM and > 50 µM
- contribution towards stabilization of the open state [1]: 4.3 kcal/mol
- cX, ratio of equilibrium dissociation constant of the open receptor to KX [1, 5]: 0.16 ± 0.01
- Hill coefficient ([1]; peak currents): 2.17 ± 0.65
- Q (=A/D), equilibrium between active and desensitized states [1]: 1.29 ± 0.14 and 1.29
- maximal peak open probability (POpen,peak) [1]: 0.99 and ~ 0.99

Compound: NCCS(=O)(=O)O [taurine, 2-aminoethanesulfonic acid]
- activation by taurine [3]: < 0.2 % of the response to GABA + propofol
- calculated steady-state POpen ([1]; 10 μM taurine): 0.21
- Q (=A/D), calculated value ([1]; calculated from steady-state open probability with 1 mM taurine): 0.52
- steady-state open probability ([1]; long (190–410 s) applications of 1 mM taurine): 0.23 ± 0.04
- cX, ratio of equilibrium dissociation constant of the open receptor to KX [1, 5]: 0.47 ± 0.02
- Kd ([1]; peak currents fitted to Eq. (1), best-fit ± S.E. of the fit, read-out: KX, equilibrium dissociation constant of the resting receptor): 10 ± 2.1 µM
- EC50 ([1]; peak currents, read-out: EC50): 9.8 µM and 10 µM
- Hill coefficient ([1]; peak currents): 0.70 ± 0.08
- maximal peak open probability (POpen,peak) [1]: 0.44 and 0.4 and ~ 0.4
- activation by taurine [4]: < 0.2 % of the response to GABA + propofol

Compound: pregnenolone sulfate [PS]
- dPS, ratio of equilibrium dissociation constant of the desensitized receptor to KPS ([1]; fit to Eq. (3), 0.3 μM GABA, 1 site): 0.14 ± 0.02
- high concentration asymptote ([1]; steady-state current elicited by 0.3 μM GABA): 50 ± 4 % of control
- dPS (α1β2γ2L GABAA receptor): 0.11
- Kd (α1β2γ2L GABAA receptor; read-out: KPS): 1.9 µM
